In paper PMC12867150, “A fungi-derived cyclic peptide enhances Th9-mediated antitumor immunity by targeting ZAP70 and SREBP1” (The Journal of Clinical Investigation, 2025):
Values joined by “and” are separate entries in the source; they are usually repeats but may differ in a detail not shown here. Equal entries are not always repeated.

Legend:
[1] = system: Il9 and Tnf mRNA in Th9 cells; assay: Quantitative PCR of Il9 and Tnf mRNA with fatostatin or SREBP1 overexpression (Figure 7B, 7H, 7I); type: cell-based, mouse
Protocol: For murine T cell transduction, MIGR1-based retroviral vector encoding Srebf1 was used. HEK293T cells were transfected with these constructs using Lipofectamine 3000 (Thermo Fisher Scientific) to produce viral particles. Supernatants were collected between 48 and 72 hours after transfection, filtered through a 0.45 μm membrane, and stored at –80°C. Naive murine CD4^+ T cells were activated with plate-bound anti-CD3 (2 μg/mL, clone 17A2, BioXCell) and soluble anti-CD28 (1 μg/mL, clone 37.51, BioXCell) stimulation in the presence of subset-specific polarizing cytokines and then transduced with viral supernatant supplemented with polybrene (10 μg/mL).
Total RNA was extracted from T cells using RNAex Pro Reagent (AG, catalog AG21102) following the manufacturer’s instructions. First-strand complementary DNA (cDNA) was synthesized using the Hifair III 1st Strand cDNA Synthesis SuperMix (YEASEN, catalog 11137ES10). Quantitative real-time PCR (qRT-PCR) was conducted on a QuantStudio 3 Real-Time PCR System (Thermo Fisher Scientific) using ChamQ Universal SYBR qPCR Master Mix (Vazyme, catalog Q711-02) and gene-specific primers (Tsingke Biotech).
For normalization, mouse samples were referenced to Gapdh or Actb, and human samples were normalized to GAPDH. Relative gene expression was calculated using the ΔΔCt method. Primer sequences are listed in Supplemental Table 5.

dendritic cells (DCs) = assay: Flow cytometry of dendritic cells (S1J-K); type: in vivo, mouse; design: key to Frequencies of DC in Spleen / Frequencies of DC in LN: % of cells; details: for Frequencies of DC in LN: Supplemental Figure 1K left; for number of DC in LN: Supplemental Figure 1K right; for DC (CD11c) gate number: representative flow plot; for Frequencies of DC in Spleen: Supplemental Figure 1J left; for number of DC in Spleen: Supplemental Figure 1J right
Protocol: (§1) C57BL/6 mice were subcutaneously injected with 5 × 10^5 B16-OVA melanoma cells. Five days after tumor implantation, mice received an intravenous infusion of 2 × 10^6 in vitro–differentiated Th9 cells (cultured for 5 days), which were derived from OT-II CD45.1 donor mice, accompanied by 4 × 10^5 OVA peptide–pulsed DCs via the tail vein. To enhance T cell engraftment and facilitate lymphodepletion, a single intraperitoneal injection of cyclophosphamide (200 mg/kg, Sigma, catalog C0768) was administered 1 day prior to T cell transfer. Mice were euthanized at designated time points for the collection and analysis of spleens, tumor-draining lymph nodes, and tumor tissues.
(§2) Details regarding staining panels (human and mouse), reagents (including clones and catalog numbers), acquisition settings, compensation/controls, and analysis procedures are provided in Supplemental Methods. […]
(§3) Figure S1. EpA enhances immune responses. […]
Representative plots, frequencies, and total numbers of dendritic cells (DCs) in […]
spleens (J) and LNs (K). […]
Statistical analysis was performed using two-way ANOVA with Tukey’s post hoc test (A), one-way ANOVA with Tukey’s post hoc test (B) or two-tailed unpaired Student’s t-test (D and G–M). ns, not significant. *p < 0.05, **p < 0.01, ****p < 0.0001.
(§4) (also on this page, place not known: Mouse weight (g) CtrlEpA CtrlEpA CtrlEpA0 I CD45.1+ T cells (%) CtrlEpA CD4+ T cells (%) CtrlEpA CtrlEpA CtrlEpA FSC CD8 CD8 FSC FSC FSC BNumber of CD45.1+ T cells (×103 per mgĎ Number of CD4+ T cells (×104 per mgĎ DC (%)NK cells (%) NK cells (%) DC (%) Number of DC (×103 per mg) Number of NK cells (×105) Number of NK cells (×103 per mg) Number of DC (×105) FSC FSC FSC CD8 CtrlEpA CtrlEpA CtrlEpA CD8+ T cells (%) Number of CD8+ T cells (×104 per mgĎ nsns ns nsns ns 40 IL-6 (pg/ml))

[2] = system: natural killer (NK) cells; assay: Flow cytometry of NK cells (S1L-M); type: in vivo, mouse; design: key to Frequencies of NK in Spleen / Frequencies of NK in LN: % of cells; details: for Frequencies of NK in LN: Supplemental Figure 1M left; for number of NK in LN: Supplemental Figure 1M right; for NK (NK1.1) gate number: representative flow plot; for Frequencies of NK in Spleen: Supplemental Figure 1L left; for number of NK in Spleen: Supplemental Figure 1L right
Protocol: as §1, §2, §3
(L and M) Representative plots, frequencies, and total numbers of natural killer (NK) cells in spleens (L) and LNs (M). Data in (A–M) are shown as mean ± SEM from n = 4 mice per group. Statistical analysis was performed using two-way ANOVA with Tukey’s post hoc test (A), one-way ANOVA with Tukey’s post hoc test (B) or two-tailed unpaired Student’s t-test (D and G–M). ns, not significant. *p < 0.05, **p < 0.01, ****p < 0.0001.
as §4

gene sets in Th9 cells = assay: GSEA / pathway enrichment of RNA-seq data; type: cell-based, mouse; details: result in words
Protocol: GSEA was performed using the clusterProfiler R package (v4.12.6), with curated gene sets obtained from the Gene Ontology and Kyoto Encyclopedia of Genes and Genomes databases. Enrichment plots were generated using the GseaVis R package (v0.1.0) to facilitate data visualization.

anteiso-C15 Leu7 surfactin [EpA]
Il9 mRNA expression (quantitative PCR) ([1]; Figure 7B, EpA (10 µM) + Fatostatin (10 µM), individual replicates, (n = 3)): 42.4796 and 40.5146 and 54.9024 | Il9 mRNA expression in Th9 cells ([1]; Figure 7H, MigR1 vector, individual replicates, (n = 3)): 17.2536 and 18.9128 and 17.6178 | Il9 mRNA expression in Th9 cells ([1]; Figure 7H, overexpressing SREBP1, individual replicates, (n = 3)): 6.0458 and 5.242 and 5.497 | Il9 mRNA expression in Th9 cells ([1]; Figure 7I, MigR1 vector, individual replicates, (n = 3)): 2.765 and 2.875 and 2.532 | Il9 mRNA expression in Th9 cells ([1]; Figure 7I, overexpressing SREBP1, individual replicates, (n = 3)): 1.999 and 1.591 and 1.423 | EpA-induced Il9 and Tnf mRNA increase upon SREBP1 overexpression ([1]; result in words): markedly suppressed | Frequencies of DC in LN (dendritic cells (DCs); LN, replicate 1): 2.19 | Frequencies of DC in LN (dendritic cells (DCs); LN, replicate 2): 1.85 | Frequencies of DC in LN (dendritic cells (DCs); LN, replicate 3): 1.69 | Frequencies of DC in LN (dendritic cells (DCs); LN, replicate 4): 1.46 | number of DC in LN (dendritic cells (DCs); LN, replicate 1): 3234.29 | number of DC in LN (dendritic cells (DCs); LN, replicate 2): 2390.2 | number of DC in LN (dendritic cells (DCs); LN, replicate 3): 1334.11 | number of DC in LN (dendritic cells (DCs); LN, replicate 4): 1093.89 | DC (CD11c) gate number (dendritic cells (DCs); LN, Figure S1K): 2.19 | Frequencies of DC in Spleen (dendritic cells (DCs); Spleen, replicate 1): 1.58 | Frequencies of DC in Spleen (dendritic cells (DCs); Spleen, replicate 2): 1.85 | Frequencies of DC in Spleen (dendritic cells (DCs); Spleen, replicate 3): 1.61 | Frequencies of DC in Spleen (dendritic cells (DCs); Spleen, replicate 4): 3.57 | number of DC in Spleen (dendritic cells (DCs); Spleen, replicate 1): 143005 | number of DC in Spleen (dendritic cells (DCs); Spleen, replicate 2): 161881 | number of DC in Spleen (dendritic cells (DCs); Spleen, replicate 3): 145729 | number of DC in Spleen (dendritic cells (DCs); Spleen, replicate 4): 275281 | DC (CD11c) gate number (dendritic cells (DCs); Spleen, Figure S1J): 1.85 | DC frequencies and total counts (dendritic cells (DCs); spleens and lymph nodes, result in words): significantly elevated | Frequencies of NK in LN ([2]; LN, replicate 1): 1.5 | Frequencies of NK in LN ([2]; LN, replicate 2): 1.56 | Frequencies of NK in LN ([2]; LN, replicate 3): 7.14 | Frequencies of NK in LN ([2]; LN, replicate 4): 7.79 | number of NK in LN ([2]; LN, replicate 1): 2211.77 | number of NK in LN ([2]; LN, replicate 2): 2015.49 | number of NK in LN ([2]; LN, replicate 3): 5620.7 | number of NK in LN ([2]; LN, replicate 4): 5844.48 | NK (NK1.1) gate number ([2]; LN, Figure S1M): 1.56 | Frequencies of NK in Spleen ([2]; Spleen, replicate 1): 14.2 | Frequencies of NK in Spleen ([2]; Spleen, replicate 2): 14.6 | Frequencies of NK in Spleen ([2]; Spleen, replicate 3): 14.4 | Frequencies of NK in Spleen ([2]; Spleen, replicate 4): 13.7 | number of NK in Spleen ([2]; Spleen, replicate 1): 1287047 | number of NK in Spleen ([2]; Spleen, replicate 2): 1289552 | number of NK in Spleen ([2]; Spleen, replicate 3): 1303518 | number of NK in Spleen ([2]; Spleen, replicate 4): 1053933 | NK (NK1.1) gate number ([2]; Spleen, Figure S1L): 14.2 | NK cells ([2]; result in words): increased only in the spleen | glycolytic and carbon metabolism pathways (gene sets in Th9 cells): significant enrichment | lipid-related pathways (gene sets in Th9 cells): markedly downregulated | oxidative phosphorylation-related gene sets (gene sets in Th9 cells): upregulation
